The text below walks through data of patent US6723897B2, “Methods for controlling gibberellin levels” (Monsanto Technology, LLC, priority 1998, dated 2004).

Holding throughout (format): in vivo, Glycine max
Series [1] concerns asCPScc soybean lines 696, 719, 720 and 724. The experiment in a line: Seed yield of asCPScc soybean lines treated with GA3. How it is done:
One hundred nine soybean plants from four […] lines (696, 719, 720 and 724) identified with GA-deficient phenotypes are grown to maturity and the seed harvested. Three of the lines (696, 719 and 720) required weekly spraying with GA3 to restore normal vegetative growth. […] Seed yield, seed weight per seed, pod number and seeds/pod data are collected for each plant. Data is collected in three groups for each line: plants that are wild-type; plants that are dwarfs and received no exogenous GA; and plants that are treated with exogenous GA3. […] Line 724 dwarf plants produces equivalent yields to the wild-type plants within this line without any external spraying. […] Line 724 has no reduction in seed weight in dwarfs without supplying exogenous GA.

Series [2] deals with soybean (A3237) in sand saturated with 3 mg/L ancymidol. The experiment in a line: GA3 seed coating, reversal of ancymidol inhibition of soybean stature. As to conditions: 3 mg GA3/kg seed (Release blended with talc); plant height at 6 DAP. How it is done: (§1) The timing of emergence and plant stature at for transgenic (plasmid pMON29801, FMV/asCPScc) soybean line 724 is rescued by sowing seeds in soil saturated with 3×10^−6 M GA3. At 7 days after planting (DAP), the GA3 treatment to the seeds rescued plant stature to within 10% of the A3237 control. As an additional control, soybean (A3237) seeds are coated with different concentrations of a commercial formulation of GA3 (Release®) blended with talc and sown in sand saturated with 3 mg/L ancymidol and grown in a greenhouse. Plant height is measured at 6 DAP. […] This rate is equivalent to approximately 62 mg GA3 per acre (assuming 140,000 seeds/acre).

For series [3], the system named is wild-type soybean variety A4922. The experiment in a line: GA3 seed treatment, soybean stand count and yield in the field. The text has this:
Treated seed is planted about 1 inch deep in previously disced soil using a cone planter. The rows are about 30 inches (76.2 cm) apart, and 15 feet (457.2 cm) long. Seeds are spaced about 3 inches (7.62 cm) apart within the rows. The emerged plants are counted periodically, and seed yields are obtained at harvest. The plant counts and yields are converted to a per acre basis. […] The decrease in plant population per acre is due to lack of emergence, in part due to broken and unhooked hypocotyls. In addition, some of the emerged plants are abnormal, e.g., with small, broken cotyledons, etc.

In the next series the test system is A3237 soybean. Briefly: GA3 soil drench, shoot length of control soybean. As to conditions: line A3237; +3 × 10^−6 M GA3 soil drench; 7 days after planting. The source says:
(§2) Thirty-five soybean plants are produced by transformation with pMON29801 (FIG. 7) containing the antisense CPS conserved core (asCPScc) gene driven by constitutive FMV promoter. The seed (R1) from the initial R0 transgenic lines is collected. R1 seeds are sown in 4-inch pots filled with commercial potting soil (Metromix 350) that is saturated with water or GA3 at a rate of either 3×10^−6 or 10^−5 M. Typically, 20 seeds are sown in 10 pots for each treatment, except where the seed supply is limiting. Pots are incubated in a greenhouse routinely used for soybean growth. Emergence is scored versus days after planting (DAP). Two soybean lines, 724 and 720, show a delayed emergence phenotype. Line 724 emergence is 1 to 2 days later than the control.
(§3) GA3 added to plasmid pMON29801 transgenic soybean seeds as a soil drench also restores soybean emergence timing and plant height during early seedling growth. Rates of GA3 between 1×10^−6 and 1×10^−5 M, when added to soil either immediately before planting or immediately after, restores normal shoot length in emerged Line #719 seedlings (Table 5).

Series [4] is described as follows: Concentration of 14C-GA3 in germinating soybean seedlings after seed treatment. The text has this: Application of ^14C-GA3 to Asgrow 3237 soybeans as a seed treatment via the hilum at a rate (5-20 ppm) within the range effective in rescuing the hypocotyl of dwarf, GA-deficient plants causes a substantial oversupply in the level of GA3 compared to the levels of endogenous bioactive gibberellins GA1 and GA4 in germinating soybean seeds (FIG. 39). The data upon which FIG. 39 is based are taken from the experiment described below in the section entitled “Determination of half-lives and distribution of ^14C-labeled GA compounds in planta”. More particularly, the data in FIG. 39 are taken from the experiment in which ^14C-GA3 is applied to the hilum at 20 ppm.
The concentration of GA3 in the seedling axis appeared to be directly proportional to the amount of GA3 applied to the seed.
The details are as follows.

Series [5] concerns pMON34439 soybean lines 46 and 202. Briefly: GA3 soil drench plus foliar spray on AX5/antisense CPScc seedlings. As to conditions: 1×10^−6 M GA3 soil drench before planting plus foliar 1×10^−5 M GA3 spray. The text has this: Two out of 59 transgenic soybean lines transformed with construct pMON34439 (AX5 promoter/antisense CPScc, FIG. 26), lines 46 and 202, show a reduced stature during early seedling growth and then resume normal vegetative growth. Twenty seeds of each line are sown in Metromix 350 soil in 3″ plastic pots in the greenhouse, approximately 40% of the seedlings are reduced in stature for line 46 and 25, 35% for line 202.

The test system of series [6] is pMON29801 soybean lines 719 and 724. The experiment in a line: GA3 soil drench, emergence and shoot length of FMV/asCPScc soybean. As to conditions: for Plant height (cm): +3 × 10^−6 M GA3 soil drench, 7 days after planting.
From the text: as §2, §1, §3

Series [7] has as its system ancymidol-treated soybean. The experiment in a line: GA3 soil drench restoring seedling height in ancymidol-treated soybean. The text has this:
For example, in side-by-side comparisons using soybean, the same dose of GA3 gives substantial differences in hypocotyl elongation depending on the method of application. The relative sensitivity can be: soil drench>hilum treatment>seed imbibition). Also, the dose of GA3, applied as a soil drench, that is needed to fully restore normal seedling height in ancymidol-treated soybean increases with time after planting (10^−7M at 4 DAP; greater than 10^−5 M at 11 DAP).

SMILES strings stand for the structures. A value given as a limit tells only on which side of the number the result lay.

Turning to `C=C1C[C@]23C[C@@]1(O)CC[C@H]2[C@@]12C=C[C@H](O)[C@@](C)(C(=O)O1)[C@H]2[C@@H]3C(=O)O` [GA3, gibberellic acid], the “reduction of seed weight per seed” value in series [1] (dwarf plants, GA treatments) is reported as “nearly completely rescued”. Also, the “seed yield restored, % of the yield of the wild-types” value in series [1] (dwarfs treated continuously with GA3, lines 696 and 719) is recorded as 70%. Further, in series [2], the “reversal of ancymidol inhibition of soybean stature” value is listed as “Good reversal of ancymidol inhibition of soybean stature”. The “Plants per Acre” value in series [3] (5 ppm GA3 seed treatment) is 41,458; in series [3] (10 ppm GA3 seed treatment), 35,133; in series [3] (15 ppm GA3 seed treatment) it was 30,566. The “Yield (bushels/acre)” value in series [3] (5 ppm GA3 seed treatment) is 41.6 bushels/acre; in series [3] (10 ppm GA3 seed treatment) it was 31.9 bushels/acre; in series [3] (15 ppm GA3 seed treatment), 31.4 bushels/acre. Moreover, the “Plant height (cm)” value with A3237 soybean was 14.9 (0.3) cm; in series [6] (R1 line 719), 11.3 (1.0) cm; in series [6] (R1 line 724) it was 10.9 (0.9) cm. Moreover, the “GA3 in seedling axis relative to combined endogenous bioactive GAs in untreated tissue” value in series [4] (20 ppm, 1 DAP) is “approximately 100 times higher”. In addition, in series [4] (Asgrow 3237, soybean (Glycine max), seedling axis, other: seed treatment applied to the hilum, ^14C-GA3 applied to the hilum at 20 ppm, one day after planting, read-out: calculated concentration of GA3 delivered to the seedling axis), the concentration at 1 day after planting was 4.31 µM. Moreover, in series [5], the “normal growth rate of seedlings” value is “at least partially restored”. In addition, the “plant stature, difference from the A3237 control” value in series [6] (line 724, soil saturated with 3×10^−6 M GA3, 7 DAP) was not above 10%. In addition, the “dose of GA3 needed to fully restore normal seedling height” value in series [7] (4 DAP) is reported as 10^−7 M; in series [7] (11 DAP), “greater than 10^−5 M”.
